Reference: PMC4077772, “Evolutionary Origin of GnIH and NPFF in Chordates: Insights from Novel Amphioxus RFamide Peptides” (PLoS ONE, 2014)
Where no end group is shown, it is not given here.

What was measured:
CRE-luciferase activity = details: ref [41]; cited from earlier work
Text: (§1) We conducted in vitro assays to analyze whether the amphioxus PQRFa peptides have a biological activity.

cAMP levels = details: ref [42]; cited from earlier work
Text: as §1

amphioxus PQRFa-R1 = assay: FSK-induced CRE-luciferase reporter assay, COS-7 cells transfected with amphioxus PQRFa-R1; format: cell-based, Branchiostoma japonicum; details: 6 h, COS-7 cells with PQRFa-R1, tested 10^−10−10^−6 M, dual-luciferase, fold activation over basal, mean ± SEM (n=4−6), Figure 6
Protocol: COS-7 cells were maintained in Dulbecco's modified Eagle's medium (DMEM; GIBCO/Invitrogen, Carlsbad, CA) supplemented with high glucose (4.5 g/L) containing 10% fetal bovine serum (GIBCO/Invitrogen) and 1% penicillin/streptomycin antibiotics (GIBCO/Invitrogen) in a humidified 5% CO2 atmosphere at 37°C. For luciferase assay, COS-7 cells were plated in 24-well plates and grown to 70–80% confluence for 24 h before transfection. Cells were then co-transfected with 200 ng of p3XFLAG-CMV-14 expression vector (Sigma-Aldrich Co., St Louis, MO) containing the amphioxus PQRFa-R1, PQRFa-R2, or empty vector, 200 ng of the pGL4.29[luc2P/CRE/Hygro] […] Cell extracts were prepared, and luciferase activity was measured using the dual-luciferase reporter assay system (Promega). […] Statistical significance was assessed by Prism statistical software (GraphPad Software Inc., La Jolla, CA). […]
Figure 5 Effect of amphioxus PQRFa peptides on forskolin (FSK)-induced or basal CRE-luciferase activity. […] The effect of amphioxus PQRFa peptides on basal CRE-luciferase activity was also tested in COS-7 cells transfected with amphioxus PQRFa-R1 or R2.The relative luciferase activity was measured from cell lysates and expressed as fold activation over the respective basal levels. […]

pituitary = details: lamprey GnIH; ref [24]; cited from earlier work
Text: as §1

FLFQPQRFamide [NPFF, pain modulatory neuropeptide with a C-terminal Pro-Gln-Arg-Phe-NH2 motif]
effect on FSK-stimulated CRE-luciferase activity (CRE-luciferase activity): inhibited FSK-stimulated CRE-luciferase activity
effect on cAMP levels (cAMP levels): inhibited cAMP levels

GRDQGWRPQRF-NH2 [PQRFa-3]
inhibition of FSK-induced CRE-luciferase activity (dose-dependent study) (amphioxus PQRFa-R1; 10^−6 M peptide): inhibited FSK-induced CRE-luciferase activity
inhibition of FSK-induced CRE-luciferase activity (dose-dependent study) (amphioxus PQRFa-R1; 10^−7 M peptide): inhibited FSK-induced CRE-luciferase activity

SEPFWHRTRPQRF-NH2 [Lamprey GnIH (LPXRFa peptide-2), lamprey GnIH ortholog]
effect on expression of GTHβ mRNA in the pituitary (pituitary): increased the expression of GTHβ mRNA
